In ChEMBL document CHEMBL5247629, “C-6 fluorinated casuarines as highly potent and selective amyloglucosidase inhibitors: Synthesis and structure-activity relationship study” (Eur J Med Chem, 2022):

Legend:
Oryza sativa = assay: Inhibition of rice alpha-glucosidase using p-nitrophenyl glycoside as substrate at 1000 uM by spectrometric method relative to control
[1] = molecular target: T1, Alpha-mannosidase (Canavalia ensiformis) (UniProt C0HJB3); assay: Inhibition of jack bean alpha-mannosidase using p-nitrophenyl glycoside as substrate at 1000 uM by spectrometric method relative to control
T1 sequence (whole entry): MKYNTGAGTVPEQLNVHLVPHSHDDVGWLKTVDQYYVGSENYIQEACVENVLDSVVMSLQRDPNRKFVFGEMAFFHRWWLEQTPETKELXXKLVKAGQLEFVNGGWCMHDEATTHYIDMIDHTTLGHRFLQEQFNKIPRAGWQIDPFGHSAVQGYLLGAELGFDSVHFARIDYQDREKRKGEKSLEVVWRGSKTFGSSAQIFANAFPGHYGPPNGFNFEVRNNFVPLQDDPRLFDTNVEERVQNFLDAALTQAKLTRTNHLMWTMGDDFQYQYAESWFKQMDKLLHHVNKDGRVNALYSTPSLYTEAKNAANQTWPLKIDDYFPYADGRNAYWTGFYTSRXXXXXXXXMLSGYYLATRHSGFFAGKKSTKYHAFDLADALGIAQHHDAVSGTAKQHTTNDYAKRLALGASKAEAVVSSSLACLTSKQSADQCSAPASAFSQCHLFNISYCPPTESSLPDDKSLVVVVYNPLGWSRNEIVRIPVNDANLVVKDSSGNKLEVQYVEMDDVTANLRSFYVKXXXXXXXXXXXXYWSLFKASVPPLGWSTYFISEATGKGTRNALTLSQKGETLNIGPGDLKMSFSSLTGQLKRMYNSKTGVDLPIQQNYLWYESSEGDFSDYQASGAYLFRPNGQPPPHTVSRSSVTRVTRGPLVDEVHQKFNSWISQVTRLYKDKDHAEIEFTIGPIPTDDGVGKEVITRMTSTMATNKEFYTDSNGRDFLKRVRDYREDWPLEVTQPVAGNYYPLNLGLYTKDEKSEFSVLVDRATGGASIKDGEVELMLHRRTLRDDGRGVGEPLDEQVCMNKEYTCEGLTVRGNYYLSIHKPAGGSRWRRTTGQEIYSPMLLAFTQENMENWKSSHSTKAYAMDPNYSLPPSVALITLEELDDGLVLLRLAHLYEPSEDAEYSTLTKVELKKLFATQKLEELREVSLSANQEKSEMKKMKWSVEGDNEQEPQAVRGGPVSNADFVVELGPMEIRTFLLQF

Escherichia coli = assay: Inhibition of Escherichia coli beta-glucuronidase using p-nitrophenyl glycoside as substrate at 1000 uM by spectrometric method relative to control
[2] = molecular target: Alpha-glucosidase (Saccharomyces cerevisiae S288c) (UniProt P53341+P38158+P07265); assay: Inhibition of yeast alpha-glucosidase using p-nitrophenyl glycoside as substrate at 1000 uM by spectrometric method relative to control; format: protein assay
Rattus norvegicus = species: Rattus norvegicus; assay: Inhibition of rat intestinal maltase using maltose as substrate at 1000 uM at pH 6.8 by colorimetric method relative to control; format: tissue-based; conditions: Intestine
Penicillium decumbens = assay: Inhibition of Penicillium decumbens alpha-L-rhamnosidase using p-nitrophenyl glycoside as substrate at 1000 uM by spectrometric method relative to control
[3] = molecular target: Alpha-galactosidase (Coffea arabica) (UniProt Q42656); assay: Inhibition of coffee bean alpha-galactosidase using p-nitrophenyl glycoside as substrate at 1000 uM by spectrometric method relative to control
Alpha-galactosidase (Coffea arabica), sequence (Q42656 16-378 limits assumed): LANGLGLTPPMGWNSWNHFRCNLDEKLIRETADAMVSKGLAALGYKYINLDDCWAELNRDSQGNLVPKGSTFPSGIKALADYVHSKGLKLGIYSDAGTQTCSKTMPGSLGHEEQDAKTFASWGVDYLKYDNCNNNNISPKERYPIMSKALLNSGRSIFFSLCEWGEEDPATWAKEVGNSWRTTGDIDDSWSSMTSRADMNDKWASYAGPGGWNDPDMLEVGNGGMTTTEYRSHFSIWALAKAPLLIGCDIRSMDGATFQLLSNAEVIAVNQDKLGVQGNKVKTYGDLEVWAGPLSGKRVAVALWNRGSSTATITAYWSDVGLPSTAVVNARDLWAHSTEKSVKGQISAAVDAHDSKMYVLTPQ

[4] = Inhibition of Aspergillus niger amyloglucosidase using p-nitrophenyl glycoside as substrate by spectrometric method
Prunus dulcis = assay: Inhibition of almond beta-glucosidase using p-nitrophenyl glycoside as substrate at 1000 uM by spectrometric method relative to control
Helix pomatia = assay: Inhibition of snail beta-mannosidase using p-nitrophenyl glycoside as substrate at 1000 uM by spectrometric method relative to control
Sus scrofa = species: Sus scrofa; assay: Inhibition of porcine kidney alpha/alpha-trehalase using p-nitrophenyl glycoside as substrate at 1000 uM by spectrometric method relative to control; format: tissue-based
Bos taurus [5] = species: Bos taurus; assay: Inhibition of bovine liver beta-glucosidase using p-nitrophenyl glycoside as substrate at 1000 uM by spectrometric method relative to control; format: tissue-based
[6] = molecular target: T2, Tissue alpha-L-fucosidase (Bos taurus) (UniProt Q2KIM0); assay: Inhibition of bovine kidney alpha-L-fucosidase using p-nitrophenyl glycoside as substrate at 1000 uM by spectrometric method relative to control; format: tissue-based
T2 sequence (whole entry): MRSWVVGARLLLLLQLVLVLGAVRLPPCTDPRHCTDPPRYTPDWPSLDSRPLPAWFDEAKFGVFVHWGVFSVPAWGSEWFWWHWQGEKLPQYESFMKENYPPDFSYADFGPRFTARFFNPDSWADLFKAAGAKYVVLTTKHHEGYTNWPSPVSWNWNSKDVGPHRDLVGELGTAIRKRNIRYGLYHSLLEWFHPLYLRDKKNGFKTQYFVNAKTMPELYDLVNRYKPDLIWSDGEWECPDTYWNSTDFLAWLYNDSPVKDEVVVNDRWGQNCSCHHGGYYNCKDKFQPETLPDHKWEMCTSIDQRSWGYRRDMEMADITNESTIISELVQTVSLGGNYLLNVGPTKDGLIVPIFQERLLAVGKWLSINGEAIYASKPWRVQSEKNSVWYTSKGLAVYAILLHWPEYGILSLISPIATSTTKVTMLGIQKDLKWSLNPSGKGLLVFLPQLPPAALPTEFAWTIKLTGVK

Bos taurus [7] = species: Bos taurus; assay: Inhibition of bovine liver beta-glucuronidase using p-nitrophenyl glycoside as substrate at 1000 uM by spectrometric method relative to control; format: tissue-based
Bos taurus [8] = species: Bos taurus; assay: Inhibition of bovine liver beta-galactosidase using p-nitrophenyl glycoside as substrate at 1000 uM by spectrometric method relative to control; format: tissue-based
[9] = Inhibition of Aspergillus niger amyloglucosidase
[10] = Inhibition of rat intestinal maltase using maltose as substrate at pH 6.8 by colorimetric method; format: tissue-based, Intestine
[11] = Inhibition of rice alpha-glucosidase using p-nitrophenyl glycoside as substrate by spectrometric method; set-up: species or system Oryza sativa

In the case of `OC[C@@H]1[C@@H](O)[C@H](O)[C@H]2C[C@H](F)CN12`, the inhibition (Oryza sativa) is reported as 10%, the inhibition [1] is reported as 0% and the inhibition (Escherichia coli) is reported as 0%. The inhibition [2] was 0%, the inhibition (Rattus norvegicus) was 7.9% and the inhibition (Penicillium decumbens) was 9.9%. The inhibition [3] was 2.9%, the IC50 [4] was 2.2 µM and the pIC50 [4] was 5.658. It also gave an inhibition (Prunus dulcis) of 36.8%, an inhibition (Helix pomatia) of 0% and an inhibition (Sus scrofa) of 23%. The inhibition (Bos taurus [5]) was 25.5%, the inhibition [6] was 0% and the inhibition (Bos taurus [7]) was 14.8%. The inhibition (Bos taurus [8]) was 25.8%.

In the case of `OC[C@@H]1[C@@H](O)[C@H](O)[C@H]2[C@H](F)[C@H](O)CN21`, the IC50 [9] is reported as 4.5 µM and the pIC50 [4] is reported as 5.347.

For `OC[C@@H]1[C@@H](O)[C@H](O)[C@H]2[C@@H](O)[C@@H](O)CN21`, the IC50 [9] was 64 µM and the pIC50 [4] was 4.194.

`OC[C@@H]1[C@@H](O)[C@H](O)[C@H]2[C@@H](O)C(F)(F)CN21` gave an inhibition (Oryza sativa) of 7.7%, an inhibition [1] of 0.8% and an inhibition (Escherichia coli) of 2.6%. The inhibition [2] was 5.6%, the inhibition (Rattus norvegicus) was 28.4% and the inhibition (Penicillium decumbens) was 0%. It also gave an inhibition [3] of 0.2%, an IC50 [4] of 246 µM and a pIC50 [4] of 3.609. The inhibition (Prunus dulcis) was 3.5%, the inhibition (Helix pomatia) was 0% and the inhibition (Sus scrofa) was 9.2%. For the same compound, the inhibition (Bos taurus [5]) was 12%, the inhibition [6] was 6.4% and the inhibition (Bos taurus [7]) was 10.1%. It also gave an inhibition (Bos taurus [8]) of 6.2%.

Compound `OC[C@@H]1[C@@H](O)[C@H](O)[C@H]2[C@@H](F)[C@@H](O)CN21` has an IC50 [9] of 152 µM and a pIC50 [4] of 3.818.

Work on `OC[C@@H]1[C@@H](O)[C@H](O)[C@H]2[C@@H](F)[C@H](O)CN21` yielded an IC50 [9] of 167 µM and a pIC50 [4] of 3.777.

With `OC[C@@H]1[C@@H](O)[C@H](O)[C@H]2C[C@@H](F)CN12` the inhibition (Oryza sativa) was 17.7%, the inhibition [1] was 2.3% and the inhibition (Escherichia coli) was 1.2%. It also gave an inhibition [2] of 30.1%, an inhibition (Rattus norvegicus) of 30.9% and an inhibition (Penicillium decumbens) of 4.9%. The inhibition [3] was 6.7%, the IC50 [4] was 633 µM and the pIC50 [4] was 3.199. For the same compound, the inhibition (Prunus dulcis) was 17.7%, the inhibition (Helix pomatia) was 4.3% and the inhibition (Sus scrofa) was 42.3%. For the same compound, the inhibition (Bos taurus [5]) was 24.3%, the inhibition [6] was 0.9% and the inhibition (Bos taurus [7]) was 21.9%. For the same compound, the inhibition (Bos taurus [8]) was 29.9%.

Work on `OC[C@@H]1[C@@H](O)[C@H](O)[C@H]2[C@H](O)[C@@H](F)CN21` yielded an inhibition [1] of 0%, an inhibition (Escherichia coli) of 7.5% and an IC50 [10] of 313 µM. It also gave an IC50 [11] of 771 µM, an inhibition [2] of 41.9% and an inhibition (Penicillium decumbens) of 14.1%. It also gave an inhibition [3] of 5%, an IC50 [4] of 35 µM and a pIC50 [4] of 4.456. The inhibition (Prunus dulcis) was 21.5%, the inhibition (Helix pomatia) was 6.2% and the inhibition (Sus scrofa) was 34.4%. For the same compound, the inhibition (Bos taurus [5]) was 18.8%, the inhibition [6] was 14.6% and the inhibition (Bos taurus [7]) was 33.2%. For the same compound, the inhibition (Bos taurus [8]) was 36.7%.
